Measurements reported in PMC7402526, “An in vitro quantitative systems pharmacology approach for deconvolving mechanisms of drug-induced, multilineage cytopenias” (PLoS Computational Biology, 2020).
“Also recorded” adds a separate entry of the source.

Legend:
granulocytes (Gran-lin) = test: MLTA, Gran: concentration-response and QSP model fit; type: cell-based, human; details: Homo sapiens, 144 h
Summary of the method: (§1)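 Drug was added at time 0 to thawed human bone marrow CD34+ cells in SFEM II plus a cytokine cocktail. After 6 days at 37°C, subsets were counted by surface-marker flow with TruCount beads. Vehicle-normalized, donor-pooled data then fed an Emax model separating anti-proliferative from cell-killing effects.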

MK cells (MK-lin) = test: MLTA, MK: concentration-response and QSP model fit; type: cell-based, human; details: Homo sapiens, 144 h
Summary of the method: (§2)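 Freeze-thawed primary human bone marrow CD34+ cells were cultured 6 days in SFEM II with a cytokine cocktail, drug added on day 0. Subsets were counted by 17-parameter flow cytometry with TruCount beads and normalized to vehicle wells. An Emax QSP model (Emax 0–2, L1 regularization) was fitted to these counts.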

[1] = system: human bone marrow-derived CD34+ cells differentiated into multiple hematopoietic lineages; test: MLTA, overall effects across hematopoietic lineages; type: cell-based
Summary of the method: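 Thawed primary human bone marrow CD34+ cells grown in SFEM II with a multi-lineage cytokine cocktail, drug added day 0, 6 days at 37°C, 5% CO2. Subsets counted by 17-parameter flow cytometry with TruCount beads, normalized to six vehicle wells per donor (2–7 donors); Emax model fitted per cell type.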

monocytes (monocyte-lin) = test: MLTA, Mono: concentration-response and QSP model fit; type: cell-based, human; details: Homo sapiens, Monocyte, 144 h
Summary of the method: as §1

B cells (B-lin) = test: MLTA, B-lin: concentration-response and QSP model fit; type: cell-based, human; details: Homo sapiens, B-cell, 144 h
Summary of the method: as §2

[2] = system: granulocyte-macrophage progenitor (GMPs); test: MLTA, GMPs: concentration-response and QSP model fit; type: cell-based, human; details: Homo sapiens, 144 h, 6 days, normalized to vehicle control, read-out: GMPs normalized cell count
Summary of the method: as §2

[3] = system: total dead cells (totalDeadCells); test: MLTA, total dead cells concentration-response; type: cell-based; details: Homo sapiens, 144 h, 6 days, normalized to vehicle control, read-out: total_dead normalized cell count
Summary of the method: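 Freeze-thawed primary human bone marrow CD34+ cells in SFEM II with cytokine cocktail, drug added day 0, 6 days at 37°C, 5% CO2. Live/dead counts by 17-parameter flow cytometry with DAPI exclusion, bead-normalized, volume-corrected to cells/mL. Normalized per donor to mean of six vehicle wells; 2–7 donors pooled.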

[4] = system: lymphocyte progenitors (LymP); test: MLTA, LymP: concentration-response and QSP model fit; type: cell-based, human; details: Homo sapiens, Lymphocyte, 144 h
Summary of the method: as §2

[5] = system: monocyte progenitors (monocyte prog); test: MLTA, MonoP: concentration-response and QSP model fit; type: cell-based, human; details: Homo sapiens, Monocyte, 144 h
Summary of the method: as §1

For O=C1CCC(N2C(=O)c3ccccc3C2=O)C(=O)N1 (stereo not shown) [thalidomide], the activity at 0.0002 µM (granulocytes (Gran-lin); dose 0.2 nM, 6 days, normalized to vehicle control, read-out: Gran normalized cell count) was 85%, the activity at 0.001 µM (granulocytes (Gran-lin); dose 1 nM, 6 days, normalized to vehicle control, read-out: Gran normalized cell count) was 100% and the activity at 0.005 µM (granulocytes (Gran-lin); dose 5 nM, 6 days, normalized to vehicle control, read-out: Gran normalized cell count) was 110%. It also gave an activity at 0.025 µM (granulocytes (Gran-lin); dose 25 nM, 6 days, normalized to vehicle control, read-out: Gran normalized cell count) of 126%, an activity at 0.1 µM (granulocytes (Gran-lin); dose 100 nM, 6 days, normalized to vehicle control, read-out: Gran normalized cell count) of 94.9% and an activity at 0.5 µM (granulocytes (Gran-lin); dose 500 nM, 6 days, normalized to vehicle control, read-out: Gran normalized cell count) of 92.7%. For the same molecule, the activity at 2.5 µM (granulocytes (Gran-lin); dose 2500 nM, 6 days, normalized to vehicle control, read-out: Gran normalized cell count) was 102%, the Emax (granulocytes (Gran-lin); parameter from QSP model fitting, read-out: Emax_drug_Gran) was 0.01% and the activity at 0.0002 µM (MK cells (MK-lin); dose 0.2 nM, 6 days, normalized to vehicle control, read-out: MK normalized cell count) was 97.8%. It also gave an activity at 0.001 µM (MK cells (MK-lin); dose 1 nM, 6 days, normalized to vehicle control, read-out: MK normalized cell count) of 103%, an activity at 0.005 µM (MK cells (MK-lin); dose 5 nM, 6 days, normalized to vehicle control, read-out: MK normalized cell count) of 118% and an activity at 0.025 µM (MK cells (MK-lin); dose 25 nM, 6 days, normalized to vehicle control, read-out: MK normalized cell count) of 114%. For the same molecule, the activity at 0.1 µM (MK cells (MK-lin); dose 100 nM, 6 days, normalized to vehicle control, read-out: MK normalized cell count) was 101%, the activity at 0.5 µM (MK cells (MK-lin); dose 500 nM, 6 days, normalized to vehicle control, read-out: MK normalized cell count) was 88.1% and the activity at 2.5 µM (MK cells (MK-lin); dose 2500 nM, 6 days, normalized to vehicle control, read-out: MK normalized cell count) was 105%. For the same molecule, the Emax (MK cells (MK-lin); parameter from QSP model fitting, read-out: Emax_drug_MK) was 0.00388%, the “effect on hematopoietic cell numbers across cell types” value ([1]; 0.2-2500 nM, 6 days, relative to vehicle control) was “least effect on hematopoietic cell types across doses; also recorded: did not drastically decrease cell types” and the “EmaxT effects across cell types (overall statement)” value ([1]; QSP model fit, EmaxT > 1.0 = cell-killing) was no more than 0.1. The activity at 0.0002 µM (monocytes (monocyte-lin); dose 0.2 nM, 6 days, normalized to vehicle control, read-out: Mon normalized cell count) was 83.3%, the activity at 0.001 µM (monocytes (monocyte-lin); dose 1 nM, 6 days, normalized to vehicle control, read-out: Mon normalized cell count) was 94% and the activity at 0.005 µM (monocytes (monocyte-lin); dose 5 nM, 6 days, normalized to vehicle control, read-out: Mon normalized cell count) was 89.4%. It also gave an activity at 0.025 µM (monocytes (monocyte-lin); dose 25 nM, 6 days, normalized to vehicle control, read-out: Mon normalized cell count) of 106%, an activity at 0.1 µM (monocytes (monocyte-lin); dose 100 nM, 6 days, normalized to vehicle control, read-out: Mon normalized cell count) of 94.4% and an activity at 0.5 µM (monocytes (monocyte-lin); dose 500 nM, 6 days, normalized to vehicle control, read-out: Mon normalized cell count) of 99.9%. For the same molecule, the activity at 2.5 µM (monocytes (monocyte-lin); dose 2500 nM, 6 days, normalized to vehicle control, read-out: Mon normalized cell count) was 97.3%, the Emax (monocytes (monocyte-lin); parameter from QSP model fitting, read-out: Emax_drug_Mono) was 0.00608% and the activity at 0.0002 µM (B cells (B-lin); dose 0.2 nM, 6 days, normalized to vehicle control, read-out: B-lin normalized cell count) was 90.8%. For the same molecule, the activity at 0.001 µM (B cells (B-lin); dose 1 nM, 6 days, normalized to vehicle control, read-out: B-lin normalized cell count) was 99.6%, the activity at 0.005 µM (B cells (B-lin); dose 5 nM, 6 days, normalized to vehicle control, read-out: B-lin normalized cell count) was 108% and the activity at 0.025 µM (B cells (B-lin); dose 25 nM, 6 days, normalized to vehicle control, read-out: B-lin normalized cell count) was 116%. It also gave an activity at 0.1 µM (B cells (B-lin); dose 100 nM, 6 days, normalized to vehicle control, read-out: B-lin normalized cell count) of 93%, an activity at 0.5 µM (B cells (B-lin); dose 500 nM, 6 days, normalized to vehicle control, read-out: B-lin normalized cell count) of 91.5% and an activity at 2.5 µM (B cells (B-lin); dose 2500 nM, 6 days, normalized to vehicle control, read-out: B-lin normalized cell count) of 104%. The Emax (B cells (B-lin); parameter from QSP model fitting, read-out: Emax_drug_B) was 0.24%, the activity at 0.0002 µM ([2]; dose 0.2 nM) was 92.4% and the activity at 0.001 µM ([2]; dose 1 nM) was 107%. The activity at 0.005 µM ([2]; dose 5 nM) was 100%, the activity at 0.025 µM ([2]; dose 25 nM) was 112% and the activity at 0.1 µM ([2]; dose 100 nM) was 97%. For the same molecule, the activity at 0.5 µM ([2]; dose 500 nM) was 104%, the activity at 2.5 µM ([2]; dose 2500 nM) was 99% and the activity at 0.0002 µM ([3]; dose 0.2 nM) was 91.6%. For the same molecule, the activity at 0.001 µM ([3]; dose 1 nM) was 109%, the activity at 0.005 µM ([3]; dose 5 nM) was 96.3% and the activity at 0.025 µM ([3]; dose 25 nM) was 120%. The activity at 0.1 µM ([3]; dose 100 nM) was 113%, the activity at 0.5 µM ([3]; dose 500 nM) was 105% and the activity at 2.5 µM ([3]; dose 2500 nM) was 99.8%. It also gave an activity at 0.0002 µM ([4]; dose 0.2 nM, 6 days, normalized to vehicle control, read-out: LymP normalized cell count) of 109%, an activity at 0.001 µM ([4]; dose 1 nM, 6 days, normalized to vehicle control, read-out: LymP normalized cell count) of 105% and an activity at 0.005 µM ([4]; dose 5 nM, 6 days, normalized to vehicle control, read-out: LymP normalized cell count) of 123%. It also gave an activity at 0.025 µM ([4]; dose 25 nM, 6 days, normalized to vehicle control, read-out: LymP normalized cell count) of 126%, an activity at 0.1 µM ([4]; dose 100 nM, 6 days, normalized to vehicle control, read-out: LymP normalized cell count) of 94.6% and an activity at 0.5 µM ([4]; dose 500 nM, 6 days, normalized to vehicle control, read-out: LymP normalized cell count) of 76.6%. It also gave an activity at 2.5 µM ([4]; dose 2500 nM, 6 days, normalized to vehicle control, read-out: LymP normalized cell count) of 139%, an Emax ([4]; parameter from QSP model fitting, read-out: Emax_drug_LymP) of 0.0064% and an activity at 0.0002 µM ([5]; dose 0.2 nM, 6 days, normalized to vehicle control, read-out: MonoPs normalized cell count) of 90.1%. The activity at 0.001 µM ([5]; dose 1 nM, 6 days, normalized to vehicle control, read-out: MonoPs normalized cell count) was 93.5%, the activity at 0.005 µM ([5]; dose 5 nM, 6 days, normalized to vehicle control, read-out: MonoPs normalized cell count) was 98.4% and the activity at 0.025 µM ([5]; dose 25 nM, 6 days, normalized to vehicle control, read-out: MonoPs normalized cell count) was 120%. The activity at 0.1 µM ([5]; dose 100 nM, 6 days, normalized to vehicle control, read-out: MonoPs normalized cell count) was 92%, the activity at 0.5 µM ([5]; dose 500 nM, 6 days, normalized to vehicle control, read-out: MonoPs normalized cell count) was 82.7% and the activity at 2.5 µM ([5]; dose 2500 nM, 6 days, normalized to vehicle control, read-out: MonoPs normalized cell count) was 104%. It also gave an Emax ([5]; parameter from QSP model fitting, read-out: Emax_drug_MonoP) of 0.00494%.
